A short description of data set [1]: Solution stability of catalyst solutions on storage at 25° C. The data set is classed as physicochemical. The note with it: Comparison 3: 40 parts catalyst in 60 parts ERL 4221E; listed as iodotoluene catalyst.
Data set [2] in a line: Iodonium catalyst solubility studies: time to dissolve to a clear solution at 70° C. Particulars: Comparison 2: 3 parts by weight catalyst in 100 parts PC-1000 (epoxy siloxane monomer); 2.9 wt. % solution.

With `CCCCCCCCCCCCC(O)COc1ccc([I+]c2ccc(C)cc2)cc1` (centres unmarked) [PCX-2519, [4-(2-hydroxy-1-tetradecyloxy)-phenyl] 4-methylphenyliodonium hexafluorophosphate], the “Solution Stability (after 14 days @ 25° C.)” value in data set [1] is “remained stable and clear”. In addition, the “Time @ 70° C. (for clear solution)” value in data set [2] was “half and ½ hr”.

The values above are taken from patent US6632960B2, “Diaryliodonium salt catalysts made from iodotoluene and a method for preparing them” (Goldschmidt AG, priority 2002, dated 2003).
